Holding throughout (format): cell-based
For data set [1], the system named is Trypanosoma brucei rhodensiense (STIB 900 strain). The experiment in a line: African trypanosome protozoa growth inhibition screening test (Alamar Blue, 72 hours). Conditions: for IC50: Trypanosoma brucei, read-out: 50% growth inhibiting concentration Trypanosoma brucei rhod.; for Selective toxicity: chemotherapy index, rat L6 cells versus African trypanosome protozoa. As to the method:
In the present example, protozoa of Trypanosoma brucei rhodensiense (STIB 900 strain), a trypamastigote living in blood stream, was used. The medium used in the experiment was a MEM medium which was sterilized with a filter and supplemented with 25 mM N-2-hydroxyethylpiperazine-2-ethansulfonic acid (HEPES), 1 g/L glucose, 1% MEM non-essential amino acid, 0.2 mM 2-mercaptoethanol, 2 mM sodium pyruvate, 0.1 mM hypoxanthine, and 15% heat-treated horse serum. The protozoa was cultured in an atmosphere of CO2 concentration 5%, at a temperature of 37° C.
The compounds of the present invention to be used in the present test and the positive target drug (melarsoprol) were dissolved in DMSO to make a test solution of a predetermined concentration. A medium containing 8×10^3 protozoa, and a test solution containing a drug of a predetermined concentration or a drug-free DMSO were added to wells of a 96-well culture plate, and subsequently, medium was added so that the amount in each well becomes 100 μL. Test solutions were taken by duplicates. After culturing the culture plate for 72 hours in an incubator, growth inhibition activity was tested. Test was conducted as follows.
10 μL of Alamar Blue aqueous solution was added to each well, and the resultant was further cultured for 2 hours. Next, the culture plate was placed on a fluorescent micro-plate reader (Spectramax Gemeni XS; US Molecular Device), radiated at an excited wavelength of 536 nm. Fluorescent intensity was measured at 588 nm, to calculate the trypanosome protozoa infected rate of the test solution added-group, and of the control group. From the protozoan infection rate obtained in the above, growth inhibition rate was calculated with the following formula, to obtain a 50% growth inhibition concentration (IC50). Growth inhibition rate (%)={1−(b−a)/(c−a)}×100 a: early infection rate b: infection rate when test solution was added c: infection rate of the control
Chemotherapy index used as an index of selective toxicity against African trypanosome protozoa was calculated with the following formula, to determine drug efficacy.
In general terms: Resazurin is reduced to fluorescent resorufin, in cell work by metabolically active cells.

Data set [2] in a line: Growth inhibition test of rat L6 cells (Alamar Blue, 72 hours). Conditions: 72 hours culture, Table 1, read-out: 50% growth inhibiting concentration Cytotoxicity L6. The method, then: (§1) Rat derived-L6 cells (rat skeletal myoblast cell) were used. As medium, RPMI1640 medium was supplemented so that L-glutamin (200 mM) is 1%, and fetal bovine serum 10%, and the medium was cultured under CO2 concentration 5%, at 37° C. The compounds of the present invention and the target drugs to be used in the test were dissolved in DMSO, to make a test solution of a predetermined concentration. Pre-culture was conducted and medium containing cells which have entered the logarithmic growth phase was taken to wells of a 96-well culture plate. Then, a test solution containing drug of a predetermined concentration or a drug-free DMSO was added. Test solutions were taken by duplicates. Culture plate was cultured for 72 hours in an incubator, to test the growth inhibition activity. Test was conducted as follows.
(§2) 10 μL of Alamar Blue aqueous solution was added to each well, and the resultant was further cultured for 2 hours. Next, the culture plate was placed on a fluorescent micro-plate reader (Spectramax Gemeni XS; US Molecular Device), radiated at an excited wavelength of 536 nm. Fluorescent intensity was measured at 588 nm, and residual rate of L6 cells of the test solution added group, and that of the control was calculated. From the cell residual rate obtained in the above, growth inhibition rate to L6 cells was calculated, to obtain a 50% growth inhibition concentration (IC50). Growth inhibition rate (%)={(C−A)/(B−A)}×100 A: primary cell count B: cell count of control 3 days after C: cell count of wells added with a sample, 3 days after […]

The subject of data set [3] is Trypanosoma cruzi (Tulahuen C2C4 strain). The experiment in a line: American trypanosome protozoa growth inhibition screening test (CPRG/Nonidet, 96 hours). Conditions: for IC50: Trypanosoma cruzi, Tulahuen C2C4 strain in rat L6 cells, 96 hours culture, read-out: 50% growth inhibiting concentration Trypanosoma cruzi; for Selective toxicity: chemotherapy index, rat L6 cells versus American trypanosome protozoa. As to the method: In the present example, amastigote and trypomastigote infected with rat L6 cells of protozoa of Trypanosoma cruzi (Tulahuen C2C4 strain) were used. As medium used in the test, RPMI 1640 medium containing L6 cells was supplemented so that L-glutamine (200 mM) becomes 1%, fetal bovine serum becomes 10%, which was cultured under CO2 concentration 5%, at 37° C.
The compounds of the present invention to be used in the test and the positive target agent (benznidazole) were dissolved in DMSO to make a test solution of a predetermined concentration. A medium containing 5×10^3 protozoa was added to wells of a 96-well culture plate, and pre-cultured for 48 hours. After replacing the medium, test solution containing drug of a predetermined concentration or a drug-free DMSO was added. Test solutions were taken by duplicates. After culturing the culture plate in an incubator for 96 hours, growth inhibition activity was tested. Test was conducted as follows.
50 μL of CPRG/Nonidet was added to each well, and allowed to rest for 2 to 6 hours. Next, the culture plate was placed on a fluorescent micro-plate reader, and the absorbance was measured at 540 nm. Growth inhibition rate was calculated with the following formula based on the protozoan infection rate which was obtained by calculating trypanosome infection rate of test solution added group and control group, to obtain a 50% growth inhibition concentration (IC50). Growth inhibition rate (%)={1−(b−a)/(c−a)}×100 a: early infection rate b: infection rate when test solution was added c: infection rate of the control
Chemotherapy index used as an index of selective toxicity against American trypanosome protozoa was calculated with the following formula, to determine drug efficacy.

The test system of data set [4] is Rat derived-L6 cells (rat skeletal myoblast cell). The experiment in a line: Growth inhibition test of rat L6 cells (Alamar Blue, 72 hours). Conditions: 72 hours culture, Table 2, read-out: 50% growth inhibiting concentration Cytotoxicity L6. The method, then: as §1, §2
[5] abbreviates: STIB900, STIB 900 strain, bloodstream form, 72 hours culture.
The mark [6] stands for this setting: L6 cells (rat skeletal myoblasts).

Like-named read-outs stand apart in the source and are kept apart here. Where only a bound is given, the exact number is not on record here.

On to `CCn1c(=O)/c(=C2\C=CN(C)c3ccccc32)s/c1=C\c1oc2ccccc2[n+]1CC` [A-2], for which the IC50 in data set [1] (setting [5]) was 0.012 µM; in data set [3] it was 0.53 µM. Also, the Selective toxicity is listed as 533 in data set [1] and 10 in data set [3]. The IC50 at 72 h in data set [2] (setting [6]) was found to be 6.4 µM.

Take `CCn1c(=O)/c(=C2\Sc3ccccc3N2C)s/c1=C\c1cccc[n+]1CCOCCOCCO` [B-6]: in data set [1] (setting [5]), the IC50 stood at 0.94 µM. The Selective toxicity in data set [1] stood at 66. The IC50 at 72 h in data set [2] (setting [6]) stood at 61.9 µM.

As to `CCn1c(=O)/c(=C2\SCCN2C)s/c1=C\c1sc2ccc3ccccc3c2[n+]1CC` [B-1], the IC50 stood at 0.095 µM in data set [1] (setting [5]) and 40 µM in data set [3]. For the same compound, the Selective toxicity in data set [1] is given as 2030; in data set [3], 4.8. Moreover, the IC50 at 72 h in data set [2] (setting [6]) amounted to 193 µM.

`Nc1nc(N)nc(Nc2ccc([As]3SCC(CO)S3)cc2)n1` (stereo not shown) [melarsoprol, reference compound]: the IC50 in data set [1] (STIB900, 72 h) stood at 0.006 µM. Further, the Selective toxicity in data set [1] came out at 1300. In addition, the IC50 at 72 h in data set [2] was 7.8 µM.

`O=C(Cn1ccnc1[N+](=O)[O-])NCc1ccccc1` [benznidazole, reference compound]: in data set [3], the IC50 stood at 0.87 µM.

Consider `CCn1c(=O)/c(=c2\s/c(=C3/Sc4ccccc4N3C)c(=O)n2CC)s/c1=C\c1sc2ccccc2[n+]1C` [C-1], for which the IC50 in data set [1] (setting [5]) is 0.009 µM; in data set [4] it was over 140 µM; in data set [3], 14 µM. In addition, the values for the Selective toxicity in data set [1] and in data set [3] were over 15600 and over 10, respectively. In data set [2] (setting [6]), the IC50 at 72 h was over 140 µM.

As for `CCn1c(=O)/c(=C2\Oc3ccc4ccccc4c3N2C)s/c1=C\c1scc(C)[n+]1C` [B-9], the IC50 came out at 0.024 µM in data set [1] (setting [5]) and 0.22 µM in data set [3]. Moreover, the Selective toxicity in data set [1] was 592; in data set [3], 65. The IC50 at 72 h in data set [2] (setting [6]) worked out at 14.2 µM.

Take `CCn1c(=O)/c(=C2\Sc3ccccc3N2C)s/c1=C\c1cccc[n+]1CCOCCOCCOC` [B-5]: the IC50 in data set [1] (setting [5]) came out at 0.37 µM; in data set [3], 29 µM. Besides, the Selective toxicity was 338 in data set [1] and 4.3 in data set [3]. Moreover, in data set [2] (setting [6]), the IC50 at 72 h worked out at 125 µM.

Turning to `CCn1c(=O)c(=C2C=CN(C)C=C2)s/c1=C\c1sc2c3ccccc3ccc2[n+]1CC` [A-1], the figures for the IC50 in data set [1] (setting [5]) and in data set [3] were 0.76 µM and 48 µM, respectively. Further, the Selective toxicity is 176 in data set [1] and 2.8 in data set [3]. The IC50 at 72 h in data set [2] (setting [6]) was 134 µM.

As for `CCn1c(=O)/c(=C2\Oc3c(ccc4ccccc34)N2C)s/c1=C\C1=[N+](CC)CCS1` [B-10], the values for the IC50 in data set [1] (setting [5]) and in data set [3] were 0.035 µM and 0.35 µM, respectively. Besides, the figures for the Selective toxicity in data set [1] and in data set [3] were 529 and 53, respectively. Besides, the IC50 at 72 h in data set [2] (setting [6]) is 18.5 µM.
